Laboratory results taken from the supplement of paper PMC6045584.

What was measured:
Experiment in all cases: area under dose-response curve of surviving fraction (unscaled, Aref=0) (surviving fraction x log10(nM)); higher = more resistant
Details in all cases: exposure time: 5 days; dose range 0.5-1000 nM
[1] = compound: CC1(C)CC(=O)c2c(C(F)(F)F)nn(-c3ccc(C(N)=O)c(N[C@H]4CC[C@H](OC(=O)CN)CC4)c3)c2C1 [SNX-5422]
Procedure, shortened: (§1)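 Inhibitor was applied to tumour cell lines at eight concentrations (0.5 to 1000 nM) for five days in 384-well plates. Luminescence from CellTiter-Glo, scaled to DMSO-only wells, gave surviving fractions in three screens per line, and these were fitted by 3-parameter logistic regression with the drc R package. The area under the curve is an unscaled activity area. Aref was 0, and dose was on a log10 scale.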

[2] = compound: CN(C)C/C=C/C(=O)Nc1cc2c(Nc3ccc(F)c(Cl)c3)ncnc2cc1O[C@H]1CCOC1 [AFATINIB]
Procedure, shortened: as §1

[3] = compound: CNC(=O)c1ccc(N2C(=S)N(c3ccc(C#N)c(C(F)(F)F)c3)C(=O)C2(C)C)cc1F [MDV3100]
Procedure, shortened: as §1

[4] = compound: Nc1nc2[nH]cnc2c(=S)[nH]1 [TIOGUANINE]
Procedure, shortened: as §1

Test System | area under dose-response curve [1] | area under dose-response curve [2] | area under dose-response curve [3] | area under dose-response curve [4]
HELA CERVIX | 2.79 | 3.69 | 3.16 | 3.36
MFM223 BREAST | 2.02 | 3.2 | 3.56 | 3.53
CHLA90 AUTONOMIC GANGLIA | 2.04 | 2.76 | 2.67 | 3.12
143B BONE | 2.02 | 3.29 |  | 3.27
SCC90 HEADNECK | 1.96 | 1.7 |  | 3.22
SG28 HEADNECK | 2.19 | 1.78 |  | 3.45
SCC003 HEADNECK | 2.21 | 2.48 | 3.21 | 3.27
SUM149.B1*.S BREAST | 2.31 |  | 2.91 | 3.25
MDAMB468 BREAST | 1.94 | 2.26 | 3.41 | 3.52
RDES SOFT TISSUE | 2.11 | 3.88 | 3.91 | 
HCT15 LARGE INTESTINE | 2.24 | 3.26 | 2.75 | 
SKBR3 BREAST | 2.08 | 0.986 |  | 3.36
ZR751 BREAST | 2.39 | 2.83 | 3.69 | 
H23 LUNG | 2.03 | 1.57 | 3.13 | 3.25
CME SYNOVIAL | 2.5 | 4.36 | 2.99 | 3.97
CAL51 BREAST | 1.93 | 3.19 | 3.24 | 3.31
MHM BONE | 2.48 | 3.27 | 3.28 | 3.29

Test System | area under dose-response curve [1] | area under dose-response curve [2] | area under dose-response curve [3] | area under dose-response curve [4]
MDAMB436 BREAST | 2.16 | 2.99 | 3.1 | 2.8
HSSYII SYNOVIAL | 1.9 | 2.96 | 2.74 | 3.09
HUO3N1 BONE | 2.53 | 3.17 | 3.37 | 3.41
ASKA SYNOVIAL | 2.11 | 3.14 |  | 3.56
SJSA1 BONE | 2.07 | 3.26 | 2.71 | 3.46
HOSMNG BONE | 2.33 | 3.23 | 3.56 | 3.34
KPD BONE | 1.89 | 3.02 | 3.28 | 3.35
HS578T BREAST | 2.21 |  | 3.38 | 3.13
PCI30 HEADNECK | 2.2 | 1.61 | 3.18 | 3.19
SUM159 BREAST | 2.17 | 3.13 | 3.33 | 
CAL72 BONE | 2.02 | 3.5 | 3.36 | 3.66
SUM149 BREAST | 1.7 | 1.98 | 2.73 | 
U2OS BONE | 2.17 | 3.19 | 3.37 | 3.25
CAL120 BREAST | 1.77 | 2.87 | 3.07 | 3.05
C33A CERVIX | 1.96 | 2.23 | 3.15 | 2.8
CASKI CERVIX | 1.63 | 0.986 | 3.17 | 3.1
MCF7 BREAST | 2.3 | 3.17 | 2.89 | 2.83
